The values below come from patent US9200008B2 (ASKA PHARMACEUTICAL CO., LTD., priority 2010, dated 2015).

SMILES strings stand for the structures. pIC50: −log10 of the molar value. Read-outs that look alike come from different tables or passages of the source.

Holding throughout (assay type): cell-based
The subject of test [1] is Human prostate cancer cell lines (PC-3 cells). Briefly: Measurement of cell death-inducing activity (Test Example 1). Conditions: PC-3, 48 h, 48 hours after addition, tested at 10, 1, 0.1, 0.025 and 0.00625 μmol/L, qualitative evaluation of 10 fields, read-out: Concentration showing the cell death-inducing activity (cell death-inducing rate not less than 40%). The method, boiled down: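 Compound treatment lasted 48 h at 10 to 0.00625 μmol/L (five levels, DMSO as control) on PC-3 cells pre-cultured 48 h at 37 °C, 5% CO2 after seeding at 1×10^5 cells/well. A cell death-inducing rate of 40% or more counted as active.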

Test [2] has the same test system. Briefly: Calculation of IC50 value, cell proliferation inhibitory activity by XTT assay, PC-3 cells (Test Example 2). Conditions: 72 hours culture with test substance, read-out: Cell proliferation inhibitory activity (IC50 value calculated from XTT assay), concentration showing 50% inhibitory activity, human prostate cancer cell lines (PC-3). As for the experimental part: (§1) Human prostate cancer cell lines (PC-3 cells) and human fibrosarcoma cell lines (HT1080 cells) were seeded to 96-well microplates so as to provide a density of 1,300 cells/well and that of 3,100 cells/well, respectively. In the presence of 5% CO2 at 37° C., the PC-3 cells and the HT1080 cells were cultured for 48 hours and 24 hours, respectively. Thereafter, each one of test substances was added to each well. As a control of a medical agent, DMSO was added. After the addition, both cells were continuously cultured for 72 hours. Then, an XTT labeling reagent containing 1 mg/mL of sodium 3′-[1-(phenylaminocarbonyl)-3,4-tetrazolium]-bis(4-methoxy-6-nitro)benzenesulfonate hydrate (XTT) and an electronic coupling reagent containing 1.25 mM N-methyl dibenzopyrazine methyl sulfate (PMS) were mixed at a ratio of 50:1 to give an XTT labeling mixture. The XTT labeling mixture was added to each well in an amount of 50 μL per well, and the cells were cultured for another 4 hours. A culture solution containing a test substance was used as a blank, and the absorbencies of a culture solution containing the XTT labeling mixture at a measurement wavelength (450 nm) and a control wavelength (650 nm) were measured by a plate reader. The difference between these absorbencies was evaluated as an activity of dehydrogenase of mitochondria derived from living cells. With respect to the following model formula of sigmoid curve, the convergent solution of each variable (gain, range, base and α) that minimize the residual sum of squares of the difference between these absorbencies and regressive prediction was determined, and then IC50 (=e^α) of each test substance was calculated.
The IC50 values of the compounds represented by the formula (1) or the salts thereof on two cancer cell lines according to the method of Test Example 2 were calculated, and the results are shown in Table A.

Test [3] concerns human fibrosarcoma cell lines (HT1080 cells). Put plainly: Calculation of IC50 value, cell proliferation inhibitory activity by XTT assay, HT1080 cells (Test Example 2). The protocol:
as §1, with “Then, an XTT labeling reagent containing 1 mg/mL of sodium 3′-[1-(phenylaminocarbonyl)-3,4-tetrazolium]-bis(4-methoxy-6-nitro)benzenesulfonate hydrate (XTT) and an electronic coupling reagent containing 1.25 mM N-methyl dibenzopyrazine methyl sulfate (PMS) were mixed at a ratio of 50:1 to give an XTT labeling mixture.” left out

The mark [4] stands for this setting: HT1080 cells, 72 hours culture with test substance, XTT assay, read-out: Cell proliferation inhibitory activity (IC50 value calculated from XTT assay), concentration showing 50% inhibitory activity, human fibrosarcoma cell lines (HT1080).

`COc1cc(C)ccc1-c1nc(C)c(NC(=O)OCc2ccc3c(c2)nc2n3CCOC2)s1` [Example 9-94]: in test [1], the minimal effective concentration is 0.00625 µM. Besides, the pIC50 in test [2] was 9.25; in test [3] (72 h), 8.76. On to `COc1cc(Cl)ccc1-c1nc(C)c(NC(=O)OCc2ccc3c(c2)nc2n3CCCC2)s1` [Example 9-1, [2-(4-Chloro-2-methoxyphenyl)-4-methylthiazol-5-yl]carbamic acid 1,2,3,4-tetrahydrobenzo[4,5]imidazo[1,2-a]pyridin-7-ylmethyl ester], for which, in test [1], the minimal effective concentration came out at 0.025 µM. In addition, the pIC50 in test [2] is 8.17; in test [3] (setting [4]), 7.82. For the molecule `CCn1nnc2cc(COC(=O)Nc3sc(-c4ccc(C)cc4OC)nc3C)ccc21` [Example 9-25], the pIC50 was 9.09 in test [2] and 8.79 in test [3] (read-out: Cell proliferation inhibitory activity (IC50 value calculated from XTT assay), concentration showing 50% inhibitory activity, human fibrosarcoma cell lines (HT1080), HT1080 cells, 72 hours culture with test substance, XTT assay).

As for `COc1cc(C)ccc1-c1cc(COC(=O)Nc2ccc3c(c2)nc2n3CCOC2)n(C)n1` [Example 13-101], the minimal effective concentration in test [1] worked out at 0.00625 µM. The pIC50 in test [2] is 8.79; in test [3] (setting [4]), 8.38. For the molecule `CCn1cc2cc(COC(=O)Nc3sc(-c4ccc(C)cc4OC)nc3C)ccc2n1` [Example 9-155], the minimal effective concentration in test [1] is 0.025 µM. Also, in test [2], the pIC50 is 8.17.

On to `CCn1cnc2cc(COC(=O)Nc3sc(-c4ccccc4OC)nc3C)ccc21` [Example 9-57], for which, in test [1], the minimal effective concentration was found to be 0.025 µM. Moreover, the pIC50 in test [2] is 8.66. With `CCn1cc2cc(NC(=O)OCc3sc(-c4ccc(C)cc4C)nc3C)ccc2n1` [Example 13-53], the minimal effective concentration in test [1] was found to be 0.1 µM. Moreover, in test [2], the pIC50 is 8.20.

As for `CCn1cnc2cc(NC(=O)OCc3cc(-c4ccc(C)cc4OC)nn3C)ccc21` [Example 13-90], in test [1], the minimal effective concentration is 0.00625 µM. The pIC50 in test [2] is 9.37. As for `O=C(N/N=C/c1ccc2c(c1)nc1n2CCOC1)c1cc(-c2ccc(Cl)cc2Cl)ns1` [Example 49-3], the minimal effective concentration in test [1] came out at 10 µM. Same read-out and setting: for `COc1ccc(CN(C)NC(=O)c2sc(-c3ccc(Cl)cc3)nc2C)cc1` [Example 16-2] the value was 10 µM; for `Cc1cc(/C=N/NC(=O)c2snc(-c3ccc(Cl)cc3Cl)c2N)cc(C)c1O` [Example 27-15, 4-Amino-3-(2,4-dichlorophenyl)isothiazole-5-carboxylic acid[1-(4-hydroxy-3,5-dimethylphenyl)methylidene]hydrazide], 10 µM; for `COc1cc(C)ccc1-c1nc(C)c(NC(=O)OCc2ccc3c(cnn3C)c2)s1` [Example 9-129], 0.00625 µM. For `COc1ccccc1-c1nc(C)c(C(=O)N/N=C/c2cc(C)c(O)c(C)c2)s1` [Example 23-120], in test [1], the minimal effective concentration is 0.1 µM.

In the case of `COc1ccccc1-c1cc(C(=O)N/N=C/c2cc(C)c(O)c(C)c2)sn1` [Example 27-8], in test [1], the minimal effective concentration stood at 0.1 µM. As for `COc1cc(Cl)ccc1-c1nc(C)c(NC(=O)OCc2ccc3c(c2)nc2n3CCN(C)C2)s1` [Example 38-1, [2-(4-Chloro-2-methoxyphenyl)-4-methylthiazol-5-yl]carbamic acid 2-methyl-1,2,3,4-tetrahydrobenzo[4,5]imidazo[1,2-a]pyrazin-8-ylmethyl ester], in test [1], the minimal effective concentration was 1 µM. As for `Cc1ccc(-c2nc(C)c(NC(=O)OCc3ccc4c(c3)nc3n4C(C)CCC3)s2)c(C)c1` (stereo not drawn) [Example 9-118], the minimal effective concentration in test [1] worked out at 10 µM.

Regarding `COc1ccc(/C=C/C(=O)Nc2sc(-c3ccc(Cl)cc3OC)nc2C)cc1` [Example 34-1, N-[2-(4-Chloro-2-methoxyphenyl)-4-methylthiazol-5-yl]-3-(4-methoxyphenyl)acrylamide], in test [1], the minimal effective concentration was 1 µM.

`CCn1nc(-c2ccc(Cl)cc2OC)cc1NC(=O)OCc1ccc2c(c1)ncn2C` [Example 9-222]: the minimal effective concentration in test [1] was found to be 0.00625 µM. With `COc1cc(C)ccc1-c1cc(NC(=O)OCc2ccc3c(c2)nc2n3CCC2)n(C)n1` [Example 9-261], the minimal effective concentration in test [1] amounted to 0.025 µM. Still for that read-out and setting: for `COc1ccc(/C=N/NC(=O)c2sc(-c3cccc(Cl)c3Cl)nc2C)cc1O` [Example 23-15] the value was 0.1 µM; for `Cc1ccc(-c2nc(C)c(COC(=O)Nc3ccc4sc(C)nc4c3)s2)c(C)c1` [Example 42-1, (2-Methylbenzothiazol-5-yl)carbamic acid 2-(2,4-dimethylphenyl)-4-methylthiazol-5-ylmethyl ester], 1 µM.

For `COc1ccc(/C=N/NC(=O)Cc2sc(-c3ccc(Cl)cc3OC)nc2C)cc1` [Example 29-1, [2-(4-Chloro-2-methoxyphenyl)-4-methylthiazol-5-yl]acetic acid[1-(4-methoxyphenyl)methylidene]hydrazide], in test [1], the minimal effective concentration was determined as 1 µM. The same measure, in the same setting: for `CCn1cnc2cc(NC(=O)OCc3cc(-c4ccc(Cl)cc4Cl)ns3)ccc21` [Example 47-12] the value was 10 µM; for `Cc1cc(Cl)ccc1-c1nc(C)c(COC(=O)Nc2ccc3c(c2)nnn3C)s1` [Example 13-3], 0.1 µM; for `Cc1nc(-c2ccc(Cl)cc2)sc1C(=O)N/N=C/c1ccc(OC(F)F)c(O)c1` [Example 23-115], 1 µM.
